Source: PubChem BioAssay (NCI)
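Compound exposure: 48 hours, 5 concentrations, 96-well plates. GI50 is the concentration that inhibits growth by half. TGI: total growth inhibition.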

Assays:
Assay in all cases: NCI anticancer screen, dose series, 48 h
[1] = tested on: MDA-N
[2] = tested on: DMS 114 small cell lung
[3] = tested on: DMS 273 small cell lung
[4] = tested on: HOP-18 NSCLC
[5] = tested on: KM20L2 colon
[6] = tested on: LXFL 529 NSCLC
[7] = tested on: M19-MEL melanoma
[8] = tested on: RXF-631 renal
[9] = tested on: XF 498 CNS

## OCCn1cnc2c(SCc3ccccc3)ncnc21
[1]
  TGI: > 100 µM

## CC1(C)CC2CC(CC(C)(C)C2=O)C1=O
[2]
  TGI: > 100 µM
[3]
  TGI: > 100 µM
[4]
  TGI: > 100 µM
[5]
  TGI: > 100 µM
[6]
  TGI: > 100 µM
[7]
  TGI: > 100 µM
[8]
  TGI: > 100 µM
[9]
  TGI: > 100 µM

## NC(=O)NC12CC3CC(CC(F)(C3)C1)C2
[2]
  TGI: > 100 µM
[3]
  TGI: > 100 µM
[5]
  TGI: > 100 µM
[6]
  TGI: > 100 µM
[7]
  TGI: > 100 µM
[8]
  TGI: > 100 µM
[9]
  TGI: > 100 µM

## CCOc1ccc(NC(=O)C(=O)C(C(=O)c2ccc3ccccc3c2)C2OC(=O)c3ccccc32)cc1 (stereo not given)
[2]
  TGI: 89.7 µM
[3]
  TGI: 47 µM
[4]
  TGI: 78.1 µM
[5]
  TGI: > 100 µM
[6]
  TGI: 37.4 µM
[7]
  TGI: 34.6 µM
[9]
  TGI: 60.6 µM

## COc1cc2c(cc1OC)[C@@H](Nc1ccc(F)cc1)C1COC(=O)[C@@H]1C2c1cc(OC)c(O)c(OC)c1 (stereo not given in full)
[2]
  TGI: 10.4 µM
[3]
  TGI: 8.41 µM
[4]
  TGI: > 100 µM
[5]
  TGI: > 54.2 µM
[6]
  TGI: > 100 µM
[7]
  TGI: > 100 µM
[8]
  TGI: > 82.7 µM
[9]
  TGI: > 24.7 µM

## CNC(=O)OCc1c2ccncc2c(C)c2c1[nH]c1ccc(OC)cc12
[2]
  TGI: 1.32 µM
[3]
  TGI: > 100 µM
[4]
  TGI: 0.738 µM
[5]
  TGI: 0.799 µM
[6]
  TGI: 0.37 µM
[7]
  TGI: 1.68 µM
[8]
  TGI: > 100 µM
[9]
  TGI: > 100 µM

## O=c1c(O)c(-c2ccc(O)c(O)c2)oc2cc(O)cc(O)c12
[2]
  TGI: > 100 µM
[3]
  TGI: > 100 µM
[4]
  TGI: > 100 µM
[5]
  TGI: > 100 µM
[6]
  TGI: > 100 µM
[7]
  TGI: > 100 µM
[8]
  TGI: > 100 µM
[9]
  TGI: > 100 µM

## O=S(=O)(/C=C/CS(=O)(=O)c1ccccc1)c1ccccc1
[2]
  TGI: 52 µM
[3]
  TGI: > 100 µM
[4]
  TGI: > 100 µM
[5]
  TGI: 74.2 µM
[6]
  TGI: > 100 µM
[7]
  TGI: > 100 µM
[8]
  TGI: 52.8 µM
[9]
  TGI: 62.6 µM

## CCCN(CCC)C(=O)C(=O)c1c(N)[nH]n(-c2ccccc2)c1=O
[2]
  TGI: > 100 µM
[3]
  TGI: > 100 µM
[4]
  TGI: > 100 µM
[5]
  TGI: > 100 µM
[6]
  TGI: > 100 µM
[7]
  TGI: > 100 µM
[8]
  TGI: > 100 µM
[9]
  TGI: > 100 µM

## COc1cccc(NC(=O)CC(=O)N2N=C(N3c4ccccc4Sc4ccccc43)CC2c2ccccc2)c1 (stereo not given)
[2]
  TGI: > 100 µM
[4]
  TGI: 62.2 µM
[5]
  TGI: > 100 µM
[6]
  TGI: > 100 µM
[7]
  TGI: > 100 µM
[9]
  TGI: > 100 µM

## COC1=C(C)C(=O)c2c(cc3c(c2O)C(C)(CCC=C(C)C)C(C)O3)C1=O (stereo not given)
[2]
  TGI: > 100 µM
[3]
  TGI: > 86.4 µM
[4]
  TGI: > 78.7 µM
[5]
  TGI: > 100 µM
[6]
  TGI: > 100 µM
[7]
  TGI: 30.1 µM
[9]
  TGI: > 100 µM

## O=C(O)c1nc(-c2ccc(Cl)c(Cl)c2)nc2ccc(Cl)cc12
[3]
  TGI: > 100 µM
[5]
  TGI: > 100 µM
[6]
  TGI: > 100 µM
[7]
  TGI: > 100 µM

## COc1ccc2nc3cc(Cl)ccc3c(SCC(=O)Nc3ccccc3-c3ccccc3NC(=O)CSc3c4ccc(Cl)cc4nc4ccc(OC)cc34)c2c1
[2]
  TGI: > 100 µM
[3]
  TGI: > 100 µM
[4]
  TGI: > 100 µM
[5]
  TGI: > 100 µM
[6]
  TGI: > 100 µM
[7]
  TGI: > 100 µM
[9]
  TGI: > 100 µM

## COc1ccc(CC2(Cc3ccc(OC)cc3)CCOC2=O)cc1
[2]
  TGI: > 100 µM
[6]
  TGI: > 100 µM
[7]
  TGI: > 100 µM
[9]
  TGI: 26.1 µM

## C[CH2][Sn]([CH2]C)([O]C(=O)c1ccccc1F)[O][Sn]([CH2]C)([CH2]C)[O]C(=O)c1ccccc1F
[2]
  GI50: 15.8 µM
  TGI: 30 µM
[3]
  GI50: > 62.6 µM
  TGI: > 100 µM
[4]
  GI50: 22.7 µM
  TGI: 51.6 µM
[5]
  GI50: > 51.2 µM
  TGI: > 77.9 µM
[6]
  GI50: 9.79 µM
  TGI: 22.1 µM
[7]
  GI50: 28.6 µM
  TGI: > 100 µM
[9]
  GI50: 16.1 µM
  TGI: 29.9 µM

## C[C@]12CCC(=O)CC1CCCC2=O (stereo not given in full)
[2]
  TGI: > 100 µM
[3]
  TGI: > 100 µM
[6]
  TGI: > 100 µM
[7]
  TGI: > 100 µM
[8]
  TGI: > 100 µM
[9]
  TGI: > 100 µM

## CCOC(=O)/C(O)=C(/C(=O)OC)c1ccc(Cl)cc1
[2]
  TGI: > 100 µM
[3]
  TGI: > 100 µM
[5]
  TGI: > 100 µM
[6]
  TGI: > 100 µM
[7]
  TGI: > 100 µM
[8]
  TGI: > 100 µM
[9]
  TGI: > 100 µM

## COC(=O)C(CC1=C(O)Nc2ccccc2N1)/C(=N/NC(N)=O)C(=O)Nc1ccccc1C (stereo not given)
[2]
  TGI: 26.5 µM
[3]
  TGI: 36.9 µM
[4]
  TGI: > 100 µM
[5]
  TGI: > 100 µM
[6]
  TGI: > 100 µM
[7]
  TGI: > 100 µM

## O=[N+]([O-])c1ccc(N2CCC(CCCC3CCN(c4ccc([N+](=O)[O-])cc4[N+](=O)[O-])CC3)CC2)c([N+](=O)[O-])c1
[1]
  TGI: 30.1 µM

## CCN(CC)c1oc(N(CC)CC)c(C(=O)Nc2ccccn2)c(=O)c1C(C)=O
[2]
  TGI: > 100 µM
[3]
  TGI: > 100 µM
[6]
  TGI: > 100 µM
[7]
  TGI: > 100 µM
[9]
  TGI: > 100 µM

## COc1ccc(C2=C(c3ccc(OC)c(OC)c3)C(=O)N3CCCC3C2)cc1 (stereo not given)
[1]
  GI50: 44.6 µM
  TGI: > 100 µM

## CN(C)C(=O)c1ccc([N+](=O)[O-])cc1
[2]
  TGI: > 100 µM
[3]
  TGI: > 100 µM
[5]
  TGI: > 100 µM
[6]
  TGI: > 100 µM
[7]
  TGI: > 100 µM

## Oc1c(Cl)c(Cl)c(O)c2c1CCCC2
[1]
  TGI: 31.1 µM

## O=C(O)C(CS)NCc1c2ccccc2nc2ccccc12 (stereo not given)
[3]
  TGI: 91.3 µM
[5]
  TGI: > 100 µM
[6]
  TGI: > 100 µM
[7]
  TGI: 89.4 µM
[8]
  TGI: > 100 µM
[9]
  TGI: 53.7 µM

## CC(=O)O[C@H]1CCC2[C@@H]3CCC4c5nonc5CC[C@]4(C)C3CC[C@@]21C (stereo not given in full)
[2]
  GI50: > 100 µM
  TGI: > 100 µM
[3]
  TGI: > 10 µM
[4]
  TGI: > 10 µM
[5]
  TGI: > 10 µM
[6]
  TGI: > 10 µM
[7]
  GI50: > 100 µM
  TGI: > 100 µM

## O=C(N/C(=C\c1ccc(/C=C(\NC(=O)c2ccccc2)c2nc3ccccc3[nH]2)cc1)c1nc2ccccc2[nH]1)c1ccccc1
[2]
  TGI: > 100 µM
[3]
  TGI: > 100 µM
[4]
  TGI: > 100 µM
[5]
  TGI: > 100 µM
[6]
  TGI: > 100 µM
[7]
  TGI: > 100 µM
[9]
  TGI: > 100 µM

## CC(=O)[CH-]C(=O)c1ccccc1.CC(=O)[CH-]C(=O)c1ccccc1.CC(=O)[CH-]C(=O)c1ccccc1.[In+3]
[4]
  GI50: 43.5 µM
  TGI: 77.1 µM
[5]
  GI50: 39.4 µM
  TGI: > 100 µM
[6]
  GI50: 25.5 µM
  TGI: > 100 µM
[7]
  GI50: 28.8 µM
  TGI: > 100 µM

## O=C1/C(=N\O)S(=O)(=O)c2ccccc21
[2]
  TGI: > 100 µM
[3]
  TGI: > 100 µM
[4]
  TGI: > 100 µM
[5]
  TGI: > 100 µM
[6]
  TGI: > 100 µM
[7]
  TGI: > 100 µM
[8]
  TGI: > 100 µM

## CCc1cccc(C)c1NC(=O)C1=C(C)NC(C)=C(C(=O)Nc2c(C)cccc2CC)C1c1ccc2c(c1)OCO2
[2]
  TGI: 38.7 µM
[5]
  TGI: 62.8 µM
[6]
  TGI: 39.9 µM
[7]
  TGI: 45.6 µM
[8]
  TGI: 54 µM
[9]
  TGI: 31 µM

## CCc1ccccc1NC(=O)/C(N=O)=C(/C)O
[2]
  TGI: > 100 µM
[3]
  TGI: > 100 µM
[4]
  TGI: > 100 µM
[5]
  TGI: > 100 µM
[6]
  TGI: > 100 µM
[7]
  TGI: > 100 µM
[8]
  TGI: > 100 µM
[9]
  TGI: > 100 µM

## O=C(NC(=Nc1ccccc1)SCCSC(=Nc1ccccc1)NC(=O)c1cccs1)c1cccs1
[2]
  TGI: > 100 µM
[3]
  TGI: > 100 µM
[5]
  TGI: > 100 µM
[6]
  TGI: > 100 µM
[7]
  TGI: > 100 µM
[9]
  TGI: > 100 µM

## CN1CCc2[nH]nc(-c3n[nH]c4c3CN(C)CC4)c2C1
[1]
  TGI: > 100 µM
